# According to ChEMBL document CHEMBL5226390, “Synthesis and Structure-Activity Analysis of Icaritin Derivatives as Potential Tumor Growth Inhibitors of Hepatocellular Carcinoma Cells” (J Nat Prod, 2023):
# Calls of active or inactive are those of the source. The calls are words filed in the database; no cut-off is given here.
# Key:
# [1] = Solubility of the compound in water incubated for 24 hrs under stirring conditions by HPLC analysis; type: physicochemical
# [2] = system: SMMC-7721; experiment: Induction of apoptosis in human SMMC-7721 cells assessed as early apoptotic cells at 4 uM incubated for 48 hrs by AnnexinV-FITC/PI staining based flow cytometry (reference value: 1.13%); type: functional
# [3] = system: SMMC-7721; experiment: Induction of apoptosis in human SMMC-7721 cells assessed as late apoptotic cells at 2 uM incubated for 48 hrs by AnnexinV-FITC/PI staining based flow cytometry (reference value: 1.51%); type: functional
# [4] = system: SMMC-7721; experiment: Induction of cell cycle arrest in human SMMC-7721 cells assessed as downregulation of p34 protein expression at 2 to 8 uM incubated for 48 hrs by western blot analysis; type: functional, cell-based; details: dose 2-8 µM
# [5] = system: HepG2; experiment: Induction of cell cycle arrest in human HepG2 cells assessed as accumulation of cells at G0/G1 phase at 8 uM incubated for 48 hrs by PI staining based flow cytometry (reference value: 64.11%); type: functional
# [6] = system: HepG2; experiment: Antiproliferative activity against human HepG2 cells assessed as reduction in cell viability incubated for 48 hrs by MTT assay; type: functional, cell-based; details: HepG2, 48 h
# [7] = system: HepG2; experiment: Induction of cell cycle arrest in human HepG2 cells assessed as accumulation of cells at S phase at 4 uM incubated for 48 hrs by PI staining based flow cytometry (reference value: 18%); type: functional
# [8] = system: SMMC-7721; experiment: Induction of cell cycle arrest in human SMMC-7721 cells assessed as accumulation of cells at G2/M phase at 4 uM incubated for 48 hrs by PI staining based flow cytometry (reference value: 15.49%); type: functional
# [9] = system: HepG2; experiment: Induction of cell cycle arrest in human HepG2 cells assessed as upregulation of p21 protein expression at 2 to 8 uM incubated for 48 hrs by western blot analysis; type: functional, cell-based; details: dose 2-8 µM
# [10] = system: HepG2; experiment: Induction of cell cycle arrest in human HepG2 cells assessed as accumulation of cells at S phase at 8 uM incubated for 48 hrs by PI staining based flow cytometry (reference value: 18%); type: functional
# [11] = system: HepG2; experiment: Induction of apoptosis in human HepG2 cells assessed as early apoptotic cells at 8 uM incubated for 48 hrs by AnnexinV-FITC/PI staining based flow cytometry (reference value: 3.41%); type: functional
# [12] = system: SMMC-7721; experiment: Induction of apoptosis in human SMMC-7721 cells assessed as viable cells at 4 uM incubated for 48 hrs by AnnexinV-FITC/PI staining based flow cytometry (reference value: 85.1%); type: functional; details: read-out: Activity
# [13] = system: SMMC-7721; experiment: Induction of cell cycle arrest in human SMMC-7721 cells assessed as accumulation of cells at S phase at 8 uM incubated for 48 hrs by PI staining based flow cytometry (reference value: 24.94%); type: functional
# [14] = system: HepG2; experiment: Induction of cell cycle arrest in human HepG2 cells assessed as downregulation of CDK4 protein expression at 2 to 8 uM incubated for 48 hrs by western blot analysis; type: functional, cell-based; details: dose 2-8 µM
# [15] = system: HepG2; experiment: Induction of cell cycle arrest in human HepG2 cells assessed as accumulation of cells at G2/M phase at 4 uM incubated for 48 hrs by PI staining based flow cytometry (reference value: 17.89%); type: functional
# [16] = system: HepG2; experiment: Induction of apoptosis in human HepG2 cells assessed as late apoptotic cells at 2 uM incubated for 48 hrs by AnnexinV-FITC/PI staining based flow cytometry (reference value: 3.23%); type: functional
# [17] = system: SMMC-7721; experiment: Induction of cell cycle arrest in human SMMC-7721 cells assessed as downregulation of CDK4 protein expression at 2 to 8 uM incubated for 48 hrs by western blot analysis; type: functional, cell-based; details: dose 2-8 µM
# [18] = system: HepG2; experiment: Induction of apoptosis in human HepG2 cells assessed as late apoptotic cells at 4 uM incubated for 48 hrs by AnnexinV-FITC/PI staining based flow cytometry (reference value: 3.23%); type: functional
# [19] = system: HepG2; experiment: Induction of apoptosis in human HepG2 cells assessed as necrotic cells at 8 uM incubated for 48 hrs by AnnexinV-FITC/PI staining based flow cytometry (reference value: 2.22%); type: functional
# [20] = system: SMMC-7721; experiment: Induction of cell cycle arrest in human SMMC-7721 cells assessed as accumulation of cells at G0/G1 phase at 4 uM incubated for 48 hrs by PI staining based flow cytometry (reference value: 59.57%); type: functional
# [21] = system: HepG2; experiment: Induction of apoptosis in human HepG2 cells assessed as chromatin condensation and fragmentation at 2 to 8 uM incubated for 48 hrs by Hoechst 33258 staining based fluorescence microscopic analysis; type: functional, cell-based; details: dose 2-8 µM
# [22] = system: SMMC-7721; experiment: Induction of apoptosis in human SMMC-7721 cells assessed as early apoptotic cells at 2 uM incubated for 48 hrs by AnnexinV-FITC/PI staining based flow cytometry (reference value: 1.13%); type: functional
# [23] = system: HepG2; experiment: Induction of apoptosis in human HepG2 cells assessed as early apoptotic cells at 4 uM incubated for 48 hrs by AnnexinV-FITC/PI staining based flow cytometry (reference value: 3.41%); type: functional
# [24] = system: HepG2; experiment: Induction of cell cycle arrest in human HepG2 cells assessed as accumulation of cells at G0/G1 phase at 2 uM incubated for 48 hrs by PI staining based flow cytometry (reference value: 64.11%); type: functional
# [25] = system: SMMC-7721; experiment: Induction of apoptosis in human SMMC-7721 cells assessed as necrotic cells at 4 uM incubated for 48 hrs by AnnexinV-FITC/PI staining based flow cytometry (reference value: 12.3%); type: functional
# [26] = system: SMMC-7721; experiment: Induction of cell cycle arrest in human SMMC-7721 cells assessed as accumulation of cells at G0/G1 phase at 2 uM incubated for 48 hrs by PI staining based flow cytometry (reference value: 59.57%); type: functional
structure (smiles),measurement,setting,value
COc1ccc(-c2oc3c(CC=C(C)C)c(OCCN4CCCC4)cc(O)c3c(=O)c2O[C@H]2O[C@H](C)[C@@H](O)[C@H](O)[C@@H]2O)cc1,solubility at 24 h,[1],11.8 mg/mL
same,Activity,[2],2.54%
same,Activity,[3],5.9%
same,Activity,[4],Active
same,Activity,[5],91.15%
same,IC50,[6],7.6 µM
same,Activity,[7],9.28%
same,Activity,[8],14.83%
same,Activity,[9],Active
same,Activity,[10],2.47%
same,Activity,[11],3.42%
same,viability at 4 µM,[12],89.6%
same,Activity,[13],12.47%
same,Activity,[14],Active
same,Activity,[15],10.7%
same,Activity,[16],6.26%
same,Activity,[17],Active
same,Activity,[18],5.47%
same,Activity,[19],16.7%
same,Activity,[20],65.57%
same,Activity,[21],Active
same,Activity,[22],1.73%
same,Activity,[23],5.14%
same,Activity,[24],68.79%
same,Activity,[25],0.956%
same,Activity,[26],63.01%
